Legend:
[1] = excess molar enthalpy (molar enthalpy of mixing); xn = mol fraction of the nth substance listed; conditions: 298.15 K, 101.3 kPa, Liquid
[2] = 303.1 K; 101.33 kPa; Liquid; pycnometer
[3] = Boiling temperature at pressure P; conditions: 101.3 kPa; Liquid; ebulliometry

ClCCCl [1,2-dichloroethane] + CN1CCCC1=O
[1]
Conditions | excess molar enthalpy [kcal/mol]
x1 = 0.0658 | -0.0565
x1 = 0.1316 | -0.11
x1 = 0.1959 | -0.159
x1 = 0.2633 | -0.205
x1 = 0.331 | -0.248
x1 = 0.3947 | -0.282
x1 = 0.4525 | -0.301
x1 = 0.592 | -0.267
x1 = 0.6421 | -0.246
x1 = 0.6925 | -0.217
x1 = 0.7469 | -0.194
x1 = 0.8024 | -0.162
x1 = 0.856 | -0.123
x1 = 0.9111 | -0.0802
x1 = 0.9608 | -0.0403

ClC(Cl)=C(Cl)Cl [tetrachloroethene] + CN1CCCC1=O
[1]
Conditions | excess molar enthalpy [kcal/mol]
x1 = 0.039 | -0.00239
x1 = 0.0887 | -0.00292
x1 = 0.1357 | -0.0012
x1 = 0.2415 | 0.007
x1 = 0.2932 | 0.0137
x1 = 0.3454 | 0.0214
x1 = 0.536 | 0.0623
x1 = 0.6006 | 0.0709
x1 = 0.6688 | 0.0803
x1 = 0.742 | 0.0775
x1 = 0.813 | 0.0706
x1 = 0.8822 | 0.0566
x1 = 0.9441 | 0.0342

CN1CCCC1=O [N-methylpyrrolidone]
Conditions | Boiling temperature at pressure P [°C] | mass density [kg/m3]
[2] | – | 1023.4
[3] | 202.30 | –

ClC=C(Cl)Cl [trichloroethene]
Conditions | Boiling temperature at pressure P [°C] | mass density [kg/m3]
[2] | – | 1451.2
[3] | 87.10 | –

ClC(Cl)C(Cl)Cl [1,1,2,2-tetrachloroethane]
Conditions | Boiling temperature at pressure P [°C] | mass density [kg/m3]
[2] | – | 1578.58
[3] | 146.20 | –

ClC(Cl)=C(Cl)Cl [tetrachloroethene]
Conditions | Boiling temperature at pressure P [°C] | mass density [kg/m3]
[2] | – | 1606.4
[3] | 121.00 | –

ClC=C(Cl)Cl [trichloroethene] + CN1CCCC1=O
[1]
Conditions | excess molar enthalpy [kcal/mol]
x1 = 0.0381 | -0.0454
x1 = 0.0886 | -0.106
x1 = 0.1426 | -0.158
x1 = 0.2005 | -0.216
x1 = 0.2675 | -0.276
x1 = 0.3373 | -0.343
x1 = 0.4001 | -0.394
x1 = 0.6547 | -0.343
x1 = 0.7095 | -0.315
x1 = 0.7643 | -0.28
x1 = 0.8186 | -0.23
x1 = 0.873 | -0.176
x1 = 0.9254 | -0.112
x1 = 0.9678 | -0.0504

CC(Cl)(Cl)Cl [1,1,1-trichloroethane] + CN1CCCC1=O
[1]
Conditions | excess molar enthalpy [kcal/mol]
x1 = 0.0303 | -0.0145
x1 = 0.0662 | -0.0323
x1 = 0.1039 | -0.0497
x1 = 0.1525 | -0.0702
x1 = 0.2006 | -0.0895
x1 = 0.2534 | -0.106
x1 = 0.3046 | -0.122
x1 = 0.3555 | -0.133
x1 = 0.4018 | -0.139
x1 = 0.4556 | -0.139
x1 = 0.5054 | -0.139
x1 = 0.5576 | -0.137
x1 = 0.6104 | -0.141
x1 = 0.6634 | -0.141
x1 = 0.7153 | -0.135
x1 = 0.7694 | -0.122
x1 = 0.8172 | -0.117
x1 = 0.8714 | -0.103
x1 = 0.9228 | -0.0783
x1 = 0.9649 | -0.0437

ClC(Cl)C(Cl)Cl [1,1,2,2-tetrachloroethane] + CN1CCCC1=O
[1]
Conditions | excess molar enthalpy [kcal/mol]
x1 = 0.0331 | -0.113
x1 = 0.0582 | -0.205
x1 = 0.0765 | -0.256
x1 = 0.1279 | -0.426
x1 = 0.1292 | -0.413
x1 = 0.1796 | -0.555
x1 = 0.2318 | -0.704
x1 = 0.2344 | -0.695
x1 = 0.288 | -0.838
x1 = 0.3219 | -0.893
x1 = 0.34 | -0.963
x1 = 0.4028 | -1.01
x1 = 0.4675 | -1.09
x1 = 0.5226 | -1.14
x1 = 0.5688 | -1.16
x1 = 0.5953 | -1.16
x1 = 0.6265 | -1.09
x1 = 0.6815 | -1
x1 = 0.7384 | -0.89
x1 = 0.7933 | -0.742
x1 = 0.8536 | -0.533
x1 = 0.9099 | -0.354
x1 = 0.9574 | -0.179

ClCCCl [1,2-dichloroethane]
Conditions | Boiling temperature at pressure P [°C] | mass density [kg/m3]
[2] | – | 1238.3
[3] | 83.80 | –

CC(Cl)(Cl)Cl [1,1,1-trichloroethane]
Conditions | Boiling temperature at pressure P [°C] | mass density [kg/m3]
[2] | – | 1320.94
[3] | 74.20 | –
